According to US20150045322A1, “COMBINATION TREATMENT COMPRISING SULPHATED GLYCOSAMINOGLYCANS FOR INDUCING LABOR” (DILAFOR AB, priority 2012, published 2015):
Positions of bridges follow the written chain, without caps; N, C: chain ends. Non-standard residues stand in square brackets, D forms with d. Residues, ends and D or L forms follow the SMILES beside them. Orn = NCCC[C@H](N)C(=O)O; Mpa = O=C(O)CCS

Assays:
[1] = system: Human uterine smooth muscle cells; experiment: Intracellular Ca2+ with Fluo-4 and confocal live cell imaging; format: cell-based
Description: Human uterine smooth muscle cells were established in a culture. A method to measuring intracellular Ca^2+ with the calcium indicator dye Fluo-4 and live cell imaging with confocal microscopy was established for the cells.

[2] = comparison value for heparin, species not stated; cited from earlier work

NCCOB(c1ccccc1)c1ccccc1 [2-APB, 2-Aminoethoxydiphenyl borate]
effect on oxytocin and oxytocin/DF01 stimulated Ca2+-transport ([1]; 100 μM, 30 min of incubation): decreased strongly

CCOc1ccc(C[C@H]2NC(=O)CCSSC[C@@H](C(=O)N3CCC[C@H]3C(=O)N[C@@H](CCCN)C(=O)NCC(N)=O)NC(=O)[C@H](CC(N)=O)NC(=O)[C@H]([C@@H](C)O)NC(=O)[C@H]([C@@H](C)CC)NC2=O)cc1 [Atosiban] ([Mpa][dY](Et)ITNCP[Orn]G-NH2; disulfide 1-6)
effect on Ca2+ transport by oxytocin and the combination oxytocin/DF01 ([1]; 10^−6 M): clearly inhibited

CC[C@H](C)[C@@H]1NC(=O)[C@H](Cc2ccc(O)cc2)NC(=O)[C@@H](N)CSSC[C@@H](C(=O)N2CCC[C@H]2C(=O)N[C@@H](CC(C)C)C(=O)NCC(N)=O)NC(=O)[C@H](CC(N)=O)NC(=O)[C@H](CCC(N)=O)NC1=O [oxytocin]
concentration giving maximum effect on Ca2+-influx to the cytosol ([1]; dose-dependent effect): 0.05 IU/ml

heparin
corresponding (subcutaneous) bioavailability [2]: about 10%
